# Results taken from patent publication US20180284095A1, “BIOMARKERS ASSOCIATED WITH LSD1 INHIBITORS AND USES THEREOF” (Oryzon Genomics, S.A., priority 2015, published 2018).
# How the values were obtained:
# Type in all cases: in vivo, mouse
# TUBB2C = test: Microarray gene expression in brain, spleen and liver of Hsd:Athymic Nude-Foxn1nu mice (Example 7), housekeeping gene
# Protocol: (§1) Total RNA was extracted from samples using the RNeasy extraction kit (Qiagen). The quality and concentration of the RNA was analyzed using the Agilent 2100 bioanalyzer and NanoDrop™ ND-1000 (Thermo Scientific). Samples with RNA integrity number (RIN)<6.0 were discarded. Total RNA (0.5 μg) amplification and labelling with Cy3 or Cy5 was carried out using the Eberwein mRNA amplification procedure (Van Gelder et al, Proc Natl Acad Sci USA 1990, 87:1663-1667) employing the MessageAmp™ aRNA amplification kit from Ambion (Applied Biosystems) following the manufacturer's instructions with minor modifications. As hybridization controls, plant mRNAs were transcribed from a plasmid containing the Zea mays Xet (xyloglucan endo-transglycosylase) cDNA and from a plasmid containing the Zea mays Zmmyb42 cDNA, independently prepared Cy3 and Cy5 labelled aRNA from these two RNAs using the Eberwein mRNA amplification procedure (as disclosed in Cerdà et al, Gen Comp Endocrinol 2008, 156:470-481).
# (§2) The Cy3- and Cy5-labelled cRNAs and spikes were combined and hybridized to the microarray described in Example 2.6 for 17 h at 60° C. using Agilent's gaskets G2534-60002, G2534A hybridization chambers and DNA Hybridization Oven G2545A, according to the manufacturer's instructions. More specifically, equal amounts of Cy3 and Cy5 labeled Xet aRNA as well as equal amounts of Cy3 and Cy5 labeled Zmmyb42 aRNA were spiked into each mixture hybridized to the array. Arrays were washed and raw data were obtained using Agilent's DNA Microarray Scanner G2505B and Feature Extraction software (v10.1). The raw fluorescence intensity data were processed using applicant's proprietary software, and consists in the following operations:
# (§3) Data normalization was carried out by an improved version of the nonlinear Q-splines normalization method (Workman et al., Genome Biol 2002, 3(9):research0048.1-0048.16). Normalization results were presented graphically as MA plots, as first described by Dudoit et al (Dudoit et al, Statistica Sinica, 2002, 12:111-139). Each point corresponds to a probe of the DNA array. M values (vertical axis) are the log-differential expression ratios. A values (horizontal axis) are the log-intensities of the spots. M and A are calculated from the Cy5 and Cy3 intensity values as of each spot. The DNA Array data is normalized using an improved version of non-linear Q-Splines normalization described by Workman et al., Genome Biol 2002, 3(9):research0048.1-0048.16. This process is useful to correct the deviation of the M values from the statistical assumption that most of the spots have M=0 in MA plots. The method allows the adjustment of all M values to form a cloud centered at M=0 in all intensity ranges. The data used to calculate the normalization fitting curve is the totality of the raw measurement dataset, excluding the signals for the probes for the spiked-in plant RNA controls and negative controls. In order to be able to normalize properly the data among all the experiments, the probe-set must include an important group of genes that should have no change (M=0) in the experiment. The normalization function is then applied to all the data, including controls.
# (§4) Normalized and log-transformed data were used to calculate log 2 (sample/control) and Fold Change (FC) values. No background subtraction was applied to the signal intensity values during data processing, permitting robust selection of differentially expressed genes with low expression levels at the cost of potential sub-estimation of change when intensity levels are close to the array background level.
# (§5) Powered Compound 3, 4 or 5 was dissolved in a 20% solution of 2-hydroxypropyl-R-cyclodextrin in water at the appropriate concentrations, vortexed and placed in an ultrasonic bath for 5 minutes.
# (§6) Hsd:Athymic Nude-Foxn1nu mice were maintained in air- and temperature-controlled cages with regular supply of water and food. A maximum of 6 mice/cage were raised. […]
# TUBB3 = test: as above
# Protocol: as §1, §2, §3, §4, §5, §6
# S100A8 = test: Microarray gene expression in brain, spleen and liver of Hsd:Athymic Nude-Foxn1nu mice (Example 7)
# Protocol: as §1, §2, §3, §4, §5, §6
# S100A9 = test: as above
# Protocol: as §1, §2, §3, §4, §5, §6
structure (smiles),measurement,setting,value
"CN1CCN(C(=O)CN[C@H]2C[C@@H]2c2ccc(OCc3ccccc3)cc2)CC1 (racemic) [Compound 4, 2-(((trans)-2-(4-(benzyloxy)phenyl)cyclopropyl)amino)-1-(4-methylpiperazin-1-yl)ethan-1-one]",Hybridization signal sample_Cy5,"TUBB2C; BRAIN, 1 mg/kg",10016.7
same,log2 (sample/control),"TUBB2C; BRAIN, 1 mg/kg vs VEH",−0.04912
same,Hybridization signal sample_Cy5,"TUBB2C; BRAIN, 3 mg/kg",9877.42
same,log2 (sample/control),"TUBB2C; BRAIN, 3 mg/kg vs VEH",−0.06585
same,Hybridization signal sample_Cy5,"TUBB2C; BRAIN, 10 mg/kg",11991.7
same,log2 (sample/control),"TUBB2C; BRAIN, 10 mg/kg vs VEH",−0.04291
same,Hybridization signal sample_Cy5,"TUBB2C; LIVER, 1 mg/kg",4327.04
same,log2 (sample/control),"TUBB2C; LIVER, 1 mg/kg vs VEH",0.2971
same,Hybridization signal sample_Cy5,"TUBB2C; LIVER, 3 mg/kg",3201.33
same,log2 (sample/control),"TUBB2C; LIVER, 3 mg/kg vs VEH",0.1069
same,Hybridization signal sample_Cy5,"TUBB2C; LIVER, 10 mg/kg",3143.68
same,log2 (sample/control),"TUBB2C; LIVER, 10 mg/kg vs VEH",0.3292
same,Hybridization signal sample_Cy5,"TUBB2C; SPLEEN, 1 mg/kg",13305.5
same,log2 (sample/control),"TUBB2C; SPLEEN, 1 mg/kg vs VEH",−0.3124
same,Hybridization signal sample_Cy5,"TUBB2C; SPLEEN, 3 mg/kg",11689.6
same,log2 (sample/control),"TUBB2C; SPLEEN, 3 mg/kg vs VEH",−0.4339
same,Hybridization signal sample_Cy5,"TUBB2C; SPLEEN, 10 mg/kg",6541.2
same,log2 (sample/control),"TUBB2C; SPLEEN, 10 mg/kg vs VEH",−1.316
same,Hybridization signal sample_Cy5,"TUBB3; BRAIN, TUBB3, 1 mg/kg",4992.04
same,log2 (sample/control),"TUBB3; BRAIN, TUBB3, 1 mg/kg vs VEH",−0.03825
same,Hybridization signal sample_Cy5,"TUBB3; BRAIN, TUBB3, 3 mg/kg",5129.04
same,log2 (sample/control),"TUBB3; BRAIN, TUBB3, 3 mg/kg vs VEH",0.07852
same,Hybridization signal sample_Cy5,"TUBB3; BRAIN, TUBB3, 10 mg/kg",5941.88
same,log2 (sample/control),"TUBB3; BRAIN, TUBB3, 10 mg/kg vs VEH",−0.1778
same,Hybridization signal sample_Cy5,"TUBB3; LIVER, TUBB3, 1 mg/kg",91.4818
same,log2 (sample/control),"TUBB3; LIVER, TUBB3, 1 mg/kg vs VEH",−0.409
same,Hybridization signal sample_Cy5,"TUBB3; LIVER, TUBB3, 3 mg/kg",66.7291
same,log2 (sample/control),"TUBB3; LIVER, TUBB3, 3 mg/kg vs VEH",−0.2432
same,Hybridization signal sample_Cy5,"TUBB3; LIVER, TUBB3, 10 mg/kg",103.99
same,log2 (sample/control),"TUBB3; LIVER, TUBB3, 10 mg/kg vs VEH",0.6811
same,Hybridization signal sample_Cy5,"TUBB3; SPLEEN, TUBB3, 1 mg/kg",76.0246
same,log2 (sample/control),"TUBB3; SPLEEN, TUBB3, 1 mg/kg vs VEH",0.2314
same,Hybridization signal sample_Cy5,"TUBB3; SPLEEN, TUBB3, 3 mg/kg",114.188
same,log2 (sample/control),"TUBB3; SPLEEN, TUBB3, 3 mg/kg vs VEH",0.3352
same,Hybridization signal sample_Cy5,"TUBB3; SPLEEN, TUBB3, 10 mg/kg",154.437
same,log2 (sample/control),"TUBB3; SPLEEN, TUBB3, 10 mg/kg vs VEH",0.9169
same,Hybridization signal sample_Cy5,"S100A8; BRAIN, S100A8, 1 mg/kg",106.74
same,log2 (sample/control),"S100A8; BRAIN, S100A8, 1 mg/kg vs VEH",−1.761
same,Hybridization signal sample_Cy5,"S100A8; BRAIN, S100A8, 3 mg/kg",65.756
same,log2 (sample/control),"S100A8; BRAIN, S100A8, 3 mg/kg vs VEH",−2.35
same,Hybridization signal sample_Cy5,"S100A8; BRAIN, S100A8, 10 mg/kg",46.781
same,log2 (sample/control),"S100A8; BRAIN, S100A8, 10 mg/kg vs VEH",−3.042
same,Hybridization signal sample_Cy5,"S100A8; LIVER, S100A8, 1 mg/kg",220.788
same,log2 (sample/control),"S100A8; LIVER, S100A8, 1 mg/kg vs VEH",−0.8718
same,Hybridization signal sample_Cy5,"S100A8; LIVER, S100A8, 3 mg/kg",211.114
same,log2 (sample/control),"S100A8; LIVER, S100A8, 3 mg/kg vs VEH",−1.181
same,Hybridization signal sample_Cy5,"S100A8; LIVER, S100A8, 10 mg/kg",172.461
same,log2 (sample/control),"S100A8; LIVER, S100A8, 10 mg/kg vs VEH",−1.335
same,Hybridization signal sample_Cy5,"S100A8; SPLEEN, S100A8, 1 mg/kg",6016.2
same,log2 (sample/control),"S100A8; SPLEEN, S100A8, 1 mg/kg vs VEH",−1.312
same,Hybridization signal sample_Cy5,"S100A8; SPLEEN, S100A8, 3 mg/kg",1854.43
same,log2 (sample/control),"S100A8; SPLEEN, S100A8, 3 mg/kg vs VEH",−3.148
same,Hybridization signal sample_Cy5,"S100A8; SPLEEN, S100A8, 10 mg/kg",1214.31
same,log2 (sample/control),"S100A8; SPLEEN, S100A8, 10 mg/kg vs VEH",−3.587
same,Hybridization signal sample_Cy5,"S100A9; BRAIN, S100A9, 1 mg/kg",306.245
same,log2 (sample/control),"S100A9; BRAIN, S100A9, 1 mg/kg vs VEH",−2.143
same,Hybridization signal sample_Cy5,"S100A9; BRAIN, S100A9, 3 mg/kg",132.716
same,log2 (sample/control),"S100A9; BRAIN, S100A9, 3 mg/kg vs VEH",−3.286
same,Hybridization signal sample_Cy5,"S100A9; BRAIN, S100A9, 10 mg/kg",78.7372
same,log2 (sample/control),"S100A9; BRAIN, S100A9, 10 mg/kg vs VEH",−4.222
same,Hybridization signal sample_Cy5,"S100A9; LIVER, S100A9, 1 mg/kg",666.426
same,log2 (sample/control),"S100A9; LIVER, S100A9, 1 mg/kg vs VEH",−1.192
same,Hybridization signal sample_Cy5,"S100A9; LIVER, S100A9, 3 mg/kg",490.218
same,log2 (sample/control),"S100A9; LIVER, S100A9, 3 mg/kg vs VEH",−1.632
same,Hybridization signal sample_Cy5,"S100A9; LIVER, S100A9, 10 mg/kg",386.758
same,log2 (sample/control),"S100A9; LIVER, S100A9, 10 mg/kg vs VEH",−1.928
same,Hybridization signal sample_Cy5,"S100A9; SPLEEN, S100A9, 1 mg/kg",13748.6
same,log2 (sample/control),"S100A9; SPLEEN, S100A9, 1 mg/kg vs VEH",−1.579
same,Hybridization signal sample_Cy5,"S100A9; SPLEEN, S100A9, 3 mg/kg",3824.62
same,log2 (sample/control),"S100A9; SPLEEN, S100A9, 3 mg/kg vs VEH",−3.541
same,Hybridization signal sample_Cy5,"S100A9; SPLEEN, S100A9, 10 mg/kg",2502.64
same,log2 (sample/control),"S100A9; SPLEEN, S100A9, 10 mg/kg vs VEH",−4.161
